pKd: −log10 of the molar value. Converted amounts (≈) assume the structure as drawn. The source made the active and inactive calls. The rule behind the calls is not given here.
Key:
[1] = tested on: Escherichia coli; experiment: Antibacterial activity against ESBL(+) producing Escherichia coli ATCC 35218 assessed as bacterial growth inhibition in presence of CAMHB medium by broth microdilution method; type: functional
[2] = tested on: Escherichia coli; experiment: Antibacterial activity against Escherichia coli ATCC 25922 assessed as bacterial growth inhibition in presence of CAMHB medium by broth microdilution method; type: functional
[3] = tested on: Acinetobacter baumannii; experiment: Antibacterial activity against Acinetobacter baumannii ATCC 19606 assessed as bacterial growth inhibition in presence of CAMHB medium by broth microdilution method; type: functional
[4] = tested on: Klebsiella pneumoniae; experiment: Antibacterial activity against Klebsiella pneumoniae ATCC […] assessed as bacterial growth inhibition in presence of CAMHB medium by broth microdilution method; type: functional
[5] = tested on: Pseudomonas aeruginosa; experiment: Antibacterial activity against Pseudomonas aeruginosa PAO1 assessed as bacterial growth inhibition in presence of CAMHB medium by broth microdilution method; type: functional
[6] = Cytotoxicity against green monkey Vero cells incubated for 48 hrs by CCK-8 assay; type: toxicity, cell-based; conditions: green monkey (Chlorocebus sabaeus)
[7] = Cytotoxicity against dog MDCK cells incubated for 48 hrs by CCK-8 assay; type: toxicity, cell-based; conditions: dog (Canis lupus familiaris)
[8] = tested on: Escherichia coli; experiment: Antibacterial activity against multi-drug resistant Escherichia coli 1 clinical isolate assessed as bacterial growth inhibition in presence of CAMHB medium by broth microdilution method; type: functional
[9] = tested on: Escherichia coli; experiment: Antibacterial activity against multi-drug resistant Escherichia coli 2 clinical isolate assessed as bacterial growth inhibition in presence of CAMHB medium by broth microdilution method; type: functional
[10] = tested on: Escherichia coli; experiment: Antibacterial activity against multi-drug resistant Escherichia coli 3 clinical isolate assessed as bacterial growth inhibition in presence of CAMHB medium by broth microdilution method; type: functional
[11] = tested on: Escherichia coli; experiment: Antibacterial activity against multi-drug resistant Escherichia coli 4 clinical isolate assessed as bacterial growth inhibition in presence of CAMHB medium by broth microdilution method; type: functional
[12] = tested on: Escherichia coli; experiment: Antibacterial activity against multi-drug resistant Escherichia coli 5 clinical isolate assessed as bacterial growth inhibition in presence of CAMHB medium by broth microdilution method; type: functional
[13] = tested on: Acinetobacter baumannii; experiment: Antibacterial activity against multi-drug resistant Acinetobacter baumannii 1 clinical isolate assessed as bacterial growth inhibition in presence of CAMHB medium by broth microdilution method; type: functional
[14] = tested on: Acinetobacter baumannii; experiment: Antibacterial activity against multi-drug resistant Acinetobacter baumannii 2 clinical isolate assessed as bacterial growth inhibition in presence of CAMHB medium by broth microdilution method; type: functional
[15] = tested on: Acinetobacter baumannii; experiment: Antibacterial activity against multi-drug resistant Acinetobacter baumannii 3 clinical isolate assessed as bacterial growth inhibition in presence of CAMHB medium by broth microdilution method; type: functional
[16] = tested on: Acinetobacter baumannii; experiment: Antibacterial activity against multi-drug resistant Acinetobacter baumannii 4 clinical isolate assessed as bacterial growth inhibition in presence of CAMHB medium by broth microdilution method; type: functional
[17] = tested on: Acinetobacter baumannii; experiment: Antibacterial activity against multi-drug resistant Acinetobacter baumannii 5 clinical isolate assessed as bacterial growth inhibition in presence of CAMHB medium by broth microdilution method; type: functional
[18] = tested on: Escherichia coli; experiment: Antibacterial activity against Escherichia coli ATCC 25922 infected in Galleria mellonella assessed as increase in larvae survival rate measured upto 96 hrs; type: functional, organism-based; conditions: dose 1.25-10 mg/kg
[19] = tested on: Escherichia coli; experiment: Antibacterial activity against Escherichia coli ATCC 25922 infected in Galleria mellonella assessed as increase in larvae survival rate at 1.25 mg/kg measured upto 96 hrs relative to control; type: functional
[20] = tested on: Escherichia coli; experiment: Antibacterial activity against Escherichia coli ATCC 25922 infected in Galleria mellonella assessed as increase in larvae survival rate at 10 mg/kg measured after 6 days post-inoculation relative to control; type: functional; conditions: ATCC 25922, 144 h, time 6 day
[21] = Inhibition of LptA /LptC (unknown origin) interaction expressed in yeast AH109 assessed as growth inhibition incubated for 48 hrs
[22] = tested on: Saccharomyces cerevisiae; experiment: Antimicrobial activity against yeast AH109 expressing T/53 assessed as growth inhibition incubated for 48 hrs; type: functional
[23] = Selectivity index, ratio of MIC for antimicrobial activity against yeast AH109 expressing T/53 to MIC for inhibition of LptA /LptC (unknown origin) interaction expressed in yeast AH109
[24] = Binding affinity to His-tagged LptA (unknown origin) assessed as dissociation constant incubated for 60 to 120 s by BLI analysis
[25] = tested on: Escherichia coli; experiment: Induction of morphological changes in Escherichia coli ATCC 25922 assessed as cell elongation in presence of LB medium measured after 1 to 3 hrs by crystal violet staining based light microscopic analysis; type: functional, organism-based; conditions: time 1-3 hrs
[26] = tested on: Escherichia coli; experiment: Induction of morphological changes in Escherichia coli ATCC 25922 assessed as appearance of filamentous cell in presence of LB medium measured after 1 to 3 hrs by crystal violet staining based light microscopic analysis; type: functional, organism-based; conditions: time 1-3 hrs
[27] = tested on: Escherichia coli; experiment: Induction of morphological changes in Escherichia coli ATCC 25922 assessed as appearance of incomplete outer membrane in presence of LB medium incubated for 12 hrs by transmission electron microscopic analysis; type: functional, organism-based
[28] = tested on: Escherichia coli; experiment: Induction of outer membrane damage in Escherichia coli ATCC 25922 assessed as increase in EtBr fluorescence intensity in presence of LB medium incubated for 12 hrs by fluorescence plate-reader analysis; type: functional, organism-based

Structure (SMILES) | MIC [1] [µg/mL] | MIC [2] [µg/mL] | MIC [3] [µg/mL] | MIC [4] [µg/mL] | MIC [5] [µg/mL] | IC50 at 48 h [6] [µg/mL] | IC50 at 48 h [7] [µg/mL] | MIC [8] [µg/mL] | MIC [9] [µg/mL] | MIC [10] [µg/mL] | MIC [11] [µg/mL] | MIC [12] [µg/mL] | MIC [13] [µg/mL] | MIC [14] [µg/mL] | MIC [15] [µg/mL] | MIC [16] [µg/mL] | MIC [17] [µg/mL] | MIC [21] [µg/mL] | MIC [22] [µg/mL] | Selectivity Index [23] | other results
Clc1cc2c(c3ncccc13)OCN(CCCc1ccccc1)C2 | 25 | 6.25 | 3.12 | 100 | 50 | > 50 | 43.8 (≈ 129 µM) | 50 | 50 | 50 | 50 | 50 | 6.25 | 12.5 | 12.5 | 12.5 | 6.25 | 6.25 (≈ 18.4 µM) | 25 (≈ 73.8 µM) | 4 | Activity [18]: Dose-dependent-effect; survival at 1.25 mg/kg [19]: 60%; survival at 10 mg/kg [20]: 70%; pKd [24]: 7.49; Activity [25]: Active; Activity [26]: Active; Activity [27]: Active; Activity [28]: Dose-dependent-effect
Clc1cc2c(c3ncccc13)OCN(CCc1ccccc1)C2 | > 100 | 6.25 | 3.12 | 100 | 50 | 14.3 (≈ 44.2 µM) | 7.24 (≈ 22.3 µM) | 50 | 50 | 50 | 50 | 50 | 100 | 100 | 100 | 100 | 100 | 12.5 (≈ 38.5 µM) | 25 (≈ 77 µM) | 2 | pKd [24]: 8.83
Fc1cc2c(c3ncccc13)OCN(CCc1ccc(Cl)cc1)C2 | 25 | 6.25 | 25 | 50 | 100 | > 50 | 29.2 (≈ 85.2 µM) | 50 | 50 | 50 | 50 | 50 | 100 | 50 | 100 | 100 | 100 | – | – | – | –
Fc1cc2c(c3ncccc13)OCN(Cc1ccc(Cl)cc1)C2 | 25 | 6.25 | 6.25 | 100 | 50 | > 50 | 35.6 (≈ 108 µM) | 50 | 50 | 50 | 50 | 50 | 12.5 | 25 | 12.5 | 3.12 | 25 | – | – | – | –
Fc1cc2c(c3ncccc13)OCN(CCc1cccc(Br)c1)C2 | 25 | 6.25 | 6.25 | 50 | 100 | > 50 | 32 (≈ 82.5 µM) | 50 | 50 | 50 | 50 | 50 | 250 | 25 | 25 | 12.5 | 12.5 | – | – | – | –
Clc1ccc(CN2COc3c(cc(Cl)c4cccnc34)C2)cc1 | 25 | 6.25 | 3.12 | 50 | 25 | > 50 | 47.8 (≈ 138 µM) | 50 | 50 | 50 | 50 | 50 | 12.5 | 6.25 | 12.5 | 12.5 | 6.25 | 12.5 (≈ 36.2 µM) | 25 (≈ 72.4 µM) | 2 | Activity [18]: Dose-dependent-effect; survival at 1.25 mg/kg [19]: 50%; survival at 10 mg/kg [20]: 80%; pKd [24]: 7.26; Activity [25]: Active; Activity [26]: Active; Activity [27]: Active; Activity [28]: Dose-dependent-effect
